Experimental data: patent publication US10538555B2, “Macrocyclic inhibitors of the PD-1/PD-L1 and CD80(B7-1)/PD-L1 protein/protein interactions” (BRISTOL-MYERS SQUIBB COMPANY, priority 2014, dated 2020)
*1 amine or outer side, *2 acyl side, *3 side chain or, on linkers, in order; H or OH if unused. Where a SMILES comes first, the peptide text is derived from it. Bridges are numbered along the chain shown (N, C = ends). [ ]: non-standard residue; d: D form. ξ: configuration not given here. Trp(1-CH2COOH) = N[C@@H](Cc1cn(CC(=O)O)c2ccccc12)C(=O)O; Phe(3,4,5-F3) = N[C@@H](Cc1cc(F)c(F)c(F)c1)C(=O)O; Phe(3,4-F2) = N[C@@H](Cc1ccc(F)c(F)c1)C(=O)O; NMePhe(4-F) = CN[C@@H](Cc1ccc(F)cc1)C(=O)O; Morpholine(3S-CO) = O=C(O)[C@@H]1COCCN1; Phe(4-F) = N[C@@H](Cc1ccc(F)cc1)C(=O)O; d(cisHyp) = O=C(O)[C@H]1C[C@@H](O)CN1; Bta = N[C@@H](Cc1csc2ccccc12)C(=O)O; Hyp = O=C(O)[C@@H]1C[C@@H](O)CN1; NMeF = CN[C@@H](Cc1ccccc1)C(=O)O; X1 = O=C([C@H]1COCCN1[*:1])[*:2]; NMeNle = CCCC[C@H](NC)C(=O)O; NMeV = CN[C@H](C(=O)O)C(C)C; Pip = O=C(O)[C@@H]1CCCCN1; dPip = O=C(O)[C@H]1CCCCN1; hSer = N[C@@H](CCO)C(=O)O; NMeA = CN[C@@H](C)C(=O)O; Orn = NCCC[C@H](N)C(=O)O; Dab = NCC[C@H](N)C(=O)O; Dap = NC[C@H](N)C(=O)O; ξC = NC(CS)C(=O)O

target: T1, Human PD-L1/PD-1 (Homo sapiens, UniProt Q9NZQ7); experiment: HTRF Human PD-L1/PD-1 binding assay (PD-1-Ig/PD-L1-His); conditions: PD-L1-His 10 nM, PD-1-Ig 20 nM; class symbol; read-out: HTRF Human PD-L1/PD-1 Binding Assay IC50 Range
T1 construct: TVMV protease cleavage site (C); made in house; host or cells: HEK293T cells
Procedure, shortened: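 Inhibitors were preincubated 15 min with human PD-L1(18-239)-His (10 nM final), then PD-1(25-167)-Ig (20 nM final) was added for 15 min in dPBS/0.1% BSA/0.05% Tween-20. Eu-cryptate anti-Ig (1 nM) and APC anti-His (20 nM) were added; 665/620 nm ratio read after 30 min.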

T1 sequence (Q9NZQ7 with tags, fused parts or gaps): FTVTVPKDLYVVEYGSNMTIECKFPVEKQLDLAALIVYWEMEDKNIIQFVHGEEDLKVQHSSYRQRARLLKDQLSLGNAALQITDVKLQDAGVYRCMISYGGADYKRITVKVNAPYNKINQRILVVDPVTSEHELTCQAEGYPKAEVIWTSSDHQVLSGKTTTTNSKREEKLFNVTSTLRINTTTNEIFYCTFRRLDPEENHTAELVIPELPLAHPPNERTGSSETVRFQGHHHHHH

Compound | IC50 [nM]
CCCC[C@H]1C(=O)N2C[C@H](O)C[C@@H]2C(=O)N[C@@H](CC(=O)O)C(=O)N[C@@H](C(C)C)C(=O)N(C)[C@@H](Cc2ccccc2)C(=O)N[C@@H](CC(=O)O)C(=O)N2C[C@H](O)C[C@@H]2C(=O)N[C@@H](Cc2c[nH]c3ccccc23)C(=O)N[C@@H](Cc2ccc(O)cc2)C(=O)N[C@@H](CCCN)C(=O)N[C@H](C(=O)NCC(N)=O)CSCC(=O)N[C@@H](Cc2ccc(F)c(F)c2)C(=O)N(C)[C@@H](Cc2ccccc2)C(=O)N1C [Example 9300] ({CH2CO}-[Phe(3,4-F2)][NMeF][NMeNle][d(cisHyp)]DV[NMeF]D[d(cisHyp)]WY[Orn]CG-NH2; thioether N-13) | 1 to 9.9
CCCC[C@H]1C(=O)N(C)[C@@H](CCCC)C(=O)N[C@@H](CCCNC(=N)N)C(=O)NC(C(=O)NCC(N)=O)CSCC(=O)N[C@@H](Cc2ccc(O)cc2)C(=O)N(C)[C@@H](C)C(=O)N[C@@H](CC(N)=O)C(=O)N2CCC[C@H]2C(=O)N[C@@H](CCO)C(=O)N[C@@H](CO)C(=O)N2C[C@H](O)C[C@H]2C(=O)N[C@@H](Cc2c[nH]c3ccccc23)C(=O)N[C@@H](CO)C(=O)N[C@@H](Cc2csc3ccccc23)C(=O)N1C (stereo partly drawn) [Example 10023] ({CH2CO}-Y[NMeA]NP[hSer]S[Hyp]WS[Bta][NMeNle][NMeNle]R[ξC]G-NH2; thioether N-14) | 10 to 99.9
CCCC[C@H]1C(=O)N2C[C@H](O)C[C@@H]2C(=O)N[C@@H](CC(=O)O)C(=O)N[C@@H](C(C)C)C(=O)N(C)[C@@H](Cc2ccccc2)C(=O)N[C@@H](CCC(=O)O)C(=O)N2C[C@H](O)C[C@@H]2C(=O)N[C@@H](Cc2c[nH]c3ccccc23)C(=O)N[C@@H](Cc2ccc(O)cc2)C(=O)N[C@@H](CC(C)C)C(=O)N[C@H](C(=O)NCC(N)=O)CSCC(=O)N[C@@H](Cc2cc(F)c(F)c(F)c2)C(=O)N(C)[C@@H](Cc2ccccc2)C(=O)N1C [Example 9330] ({CH2CO}-[Phe(3,4,5-F3)][NMeF][NMeNle][d(cisHyp)]DV[NMeF]E[d(cisHyp)]WYLCG-NH2; thioether N-13) | 10 to 99.9
CCCC[C@H]1C(=O)N(C)[C@@H](C)C(=O)N[C@@H](CCCNC(=N)N)C(=O)NC(C(=O)NCC(N)=O)CSCC(=O)N[C@@H](Cc2ccc(O)cc2)C(=O)N(C)[C@@H](C)C(=O)N[C@@H](CC(N)=O)C(=O)N2CCC[C@H]2C(=O)N[C@@H](Cc2cnc[nH]2)C(=O)N[C@H](CO)C(=O)N2C[C@H](O)C[C@H]2C(=O)N[C@@H](Cc2c[nH]c3ccccc23)C(=O)N[C@@H](CO)C(=O)N[C@@H](Cc2c[nH]c3ccccc23)C(=O)N1C (stereo partly drawn) [Example 9119] ({CH2CO}-Y[NMeA]NPH[dS][Hyp]WSW[NMeNle][NMeA]R[ξC]G-NH2; thioether N-14) | 10 to 99.9
CCCC[C@H]1C(=O)N(C)[C@@H](CCCC)C(=O)N[C@@H](CCC(=O)O)C(=O)NC(C(=O)NCC(N)=O)CSCC(=O)N[C@@H](Cc2ccc(O)cc2)C(=O)N(C)[C@@H](C)C(=O)N[C@@H](CC(N)=O)C(=O)N2CCC[C@H]2C(=O)N[C@@H](Cc2c[nH]cn2)C(=O)N[C@@H](CC(N)=O)C(=O)N2C[C@H](O)C[C@H]2C(=O)N[C@@H](Cc2c[nH]c3ccccc23)C(=O)N[C@@H](CCN)C(=O)N[C@@H](Cc2c[nH]c3ccccc23)C(=O)N1C (stereo partly drawn) [Example 9183] ({CH2CO}-Y[NMeA]NPHN[Hyp]W[Dab]W[NMeNle][NMeNle]E[ξC]G-NH2; thioether N-14) | 1 to 9.9
CCCC[C@H]1C(=O)N(C)[C@@H](CCCC)C(=O)N[C@@H](CCC(=O)O)C(=O)N[C@H](C(=O)NCC(N)=O)CSCC(=O)N[C@@H](Cc2ccc(O)cc2)C(=O)N2CCOC[C@H]2C(=O)N[C@@H](CC(=O)O)C(=O)N2CCC[C@H]2C(=O)N[C@@H](CN)C(=O)N[C@@H](CCC(=O)O)C(=O)N2C[C@H](O)C[C@H]2C(=O)N[C@@H](Cc2c[nH]c3ccccc23)C(=O)N[C@@H](CO)C(=O)N[C@@H](Cc2c[nH]c3ccccc23)C(=O)N1C [Example 1520] ({CH2CO}-Y[Morpholine(3S-CO)]DP[Dap]E[Hyp]WSW[NMeNle][NMeNle]ECG-NH2; thioether N-14) | 1 to 9.9
CCCC[C@H]1C(=O)N2CCC[C@@H]2C(=O)N[C@@H](CC(=O)O)C(=O)N[C@@H](C(C)C)C(=O)N(C)[C@@H](C(C)C)C(=O)N[C@@H](CCC(N)=O)C(=O)N2CCCC[C@@H]2C(=O)N[C@@H](Cc2c[nH]c3ccccc23)C(=O)N[C@@H](Cc2ccc(O)cc2)C(=O)N[C@@H](CC(C)C)C(=O)N[C@H](C(=O)NCC(N)=O)CSCC(=O)N[C@@H](Cc2ccc(F)cc2)C(=O)N(C)[C@@H](Cc2ccccc2)C(=O)N1C [Example 9246] ({CH2CO}-[Phe(4-F)][NMeF][NMeNle][dP]DV[NMeV]Q[dPip]WYLCG-NH2; thioether N-13) | 1000 to 10000
CCCC[C@H]1C(=O)N(C)[C@@H](CCCC)C(=O)N[C@@H](CN)C(=O)N[C@H](C(=O)NCC(N)=O)CSCC(=O)N[C@@H](Cc2ccc(O)cc2)C(=O)N2CCCC[C@H]2C(=O)N[C@@H](CC(N)=O)C(=O)N2CCC[C@H]2C(=O)N[C@@H](CN)C(=O)N[C@@H](CCC(=O)O)C(=O)N2C[C@H](O)C[C@H]2C(=O)N[C@@H](Cc2c[nH]c3ccccc23)C(=O)N[C@@H](CCN)C(=O)N[C@@H](Cc2cn(CC(=O)O)c3ccccc23)C(=O)N1C [Example 1295] ({CH2CO}-Y[Pip]NP[Dap]E[Hyp]W[Dab][Trp(1-CH2COOH)][NMeNle][NMeNle][Dap]CG-NH2; thioether N-14) | 10 to 99.9
CCCC[C@H]1C(=O)N(C)[C@@H](CCCC)C(=O)N[C@@H](C)C(=O)N[C@H](C(=O)NCC(N)=O)CSCC(=O)N[C@@H](Cc2ccc(O)cc2)C(=O)N2CCNC[C@H]2C(=O)N[C@@H](CC(N)=O)C(=O)N2CCC[C@H]2C(=O)N[C@@H](Cc2cnc[nH]2)C(=O)N[C@@H](CCC(N)=O)C(=O)N2C[C@H](O)C[C@H]2C(=O)N[C@@H](Cc2c[nH]c3ccccc23)C(=O)N[C@@H](CO)C(=O)N[C@@H](Cc2c[nH]c3ccccc23)C(=O)N1C [Example 1275] | 1 to 9.9
CCCC[C@H]1C(=O)N(C)[C@@H](CCCC)C(=O)N[C@@H](CCCN)C(=O)N[C@H](C(=O)NCC(N)=O)CSCC(=O)N[C@@H](Cc2ccc(OC)cc2)C(=O)N(C)[C@@H](C)C(=O)N[C@@H](CCN)C(=O)N2CCC[C@H]2C(=O)N[C@@H](Cc2cnc[nH]2)C(=O)N[C@@H](CCC(=O)O)C(=O)N2C[C@H](O)C[C@H]2C(=O)N[C@@H](Cc2c[nH]c3ccccc23)C(=O)N[C@@H](CCN)C(=O)N[C@@H](Cc2c[nH]c3ccccc23)C(=O)N1C [Example 7090] ({CH2CO}-Y(Me)[NMeA][Dab]PHE[Hyp]W[Dab]W[NMeNle][NMeNle][Orn]CG-NH2; thioether N-14) | 1 to 9.9

Further lines, results first:

IC50 [nM] | Compound
1 to 9.9 | CCCC[C@H]1C(=O)N2C[C@H](O)C[C@@H]2C(=O)N[C@@H](CC(=O)O)C(=O)N[C@@H](C(C)C)C(=O)N(C)[C@@H](Cc2ccccc2)C(=O)N[C@@H](CCC(=O)O)C(=O)N2CCOC[C@@H]2C(=O)N[C@@H](Cc2c[nH]c3ccccc23)C(=O)N[C@@H](Cc2ccc(O)cc2)C(=O)N[C@@H](CC(C)C)C(=O)N[C@H](C(=O)NCC(N)=O)CSCC(=O)N[C@@H](Cc2cc(F)c(F)c(F)c2)C(=O)N(C)[C@@H](Cc2ccc(F)cc2)C(=O)N1C [Example 10594] ({CH2CO}-[Phe(3,4,5-F3)][NMePhe(4-F)][NMeNle][d(cisHyp)]DV[NMeF]E[X1]WYLCG-NH2; thioether N-13)
1 to 9.9 | CCCC[C@H]1C(=O)N(C)[C@@H](CCCC)C(=O)N[C@@H](CCCNC(=N)N)C(=O)NC(C(=O)NCC(N)=O)CSCC(=O)N[C@@H](Cc2ccc(O)cc2)C(=O)N(C)[C@@H](C)C(=O)N[C@@H](CC(N)=O)C(=O)N2CCC[C@H]2C(=O)N[C@@H](CO)C(=O)N[C@@H](CO)C(=O)N2CCC[C@H]2C(=O)N[C@@H](Cc2c[nH]c3ccccc23)C(=O)N[C@@H](CO)C(=O)N[C@@H](Cc2csc3ccccc23)C(=O)N1C (stereo partly drawn) [Example 10015] ({CH2CO}-Y[NMeA]NPSSPWS[Bta][NMeNle][NMeNle]R[ξC]G-NH2; thioether N-14)
1 to 9.9 | CCCC[C@H]1C(=O)N(C)[C@@H](CCCC)C(=O)N[C@@H](CCC(=O)O)C(=O)N[C@H](C(=O)NCC(N)=O)CSCC(=O)N[C@@H](Cc2ccc(O)cc2)C(=O)N(C)[C@@H](C)C(=O)N[C@@H](CC(N)=O)C(=O)N2CCC[C@H]2C(=O)N[C@@H](CN)C(=O)N[C@@H](CCC(N)=O)C(=O)N2C[C@H](O)C[C@H]2C(=O)N[C@@H](Cc2c[nH]c3ccccc23)C(=O)N[C@@H](CO)C(=O)N[C@@H](Cc2c[nH]c3ccccc23)C(=O)N1C [Example 5208] ({CH2CO}-Y[NMeA]NP[Dap]Q[Hyp]WSW[NMeNle][NMeNle]ECG-NH2; thioether N-14)
1 to 9.9 | CCCC[C@H]1C(=O)N(C)[C@@H](CCCC)C(=O)N[C@@H](CCC(=O)O)C(=O)N[C@H](C(=O)NCC(N)=O)CSCC(=O)N[C@@H](Cc2ccc(O)cc2)C(=O)N(C)[C@@H](C)C(=O)N[C@@H](CC(N)=O)C(=O)N2CCC[C@H]2C(=O)N[C@@H](CN)C(=O)N[C@@H](CCC(N)=O)C(=O)N2C[C@H](O)C[C@H]2C(=O)N[C@@H](Cc2c[nH]c3ccccc23)C(=O)N[C@@H](CCN)C(=O)N[C@@H](Cc2c[nH]c3ccccc23)C(=O)N1C [Example 5237] ({CH2CO}-Y[NMeA]NP[Dap]Q[Hyp]W[Dab]W[NMeNle][NMeNle]ECG-NH2; thioether N-14)
1 to 9.9 | CCCC[C@H]1C(=O)N2CCC[C@@H]2C(=O)N[C@@H](CC(=O)O)C(=O)N[C@@H](C(C)C)C(=O)N(C)[C@@H](Cc2ccccc2)C(=O)N[C@@H](CCC(=O)O)C(=O)N2CCCC[C@@H]2C(=O)N[C@@H](Cc2c[nH]c3ccccc23)C(=O)N[C@@H](Cc2ccc(O)cc2)C(=O)N[C@@H](CCC(N)=O)C(=O)N[C@H](C(=O)NCC(N)=O)CSCC(=O)N[C@@H](Cc2cc(F)c(F)c(F)c2)C(=O)N(C)[C@@H](Cc2ccc(F)cc2)C(=O)N1C [Example 10563] ({CH2CO}-[Phe(3,4,5-F3)][NMePhe(4-F)][NMeNle][dP]DV[NMeF]E[dPip]WYQCG-NH2; thioether N-13)
